Test results taken from US20120029068A1, “TRANSDERMAL FLUID” (MALAYSIAN PALM OIL BROARD A/K/A MPOB, priority 2007, published 2012).
Read-outs that look alike come from different tables or passages of the source.

Experiments:
ZR-75-1 cells = conditions: absence and presence of estradiol and tamoxifen; cited from earlier work
prostate cancer cell = conditions: comparison between homologues; cited from earlier work
[1] = system: human breast cancer cells; conditions: cited from earlier work; for anti-proliferative and pro-apoptotic effects / inhibition of breast cancer cell growth: human breast cancer cells
MCF-7 = conditions: absence and presence of estradiol and tamoxifen; cited from earlier work
Splenocytes = assay: MTT viability assay of splenocytes; type: cell-based, BALB/c mice; conditions: splenocytes of treated mice, addition of concanavalin A or OVA
Procedure: Viability of the cells was measured by the MTT assay. In this assay MTT is converted to a blue formazan product by dehydrogenases that are active in living cells. Splenocytes were seeded with concanavalin A or OVA in a 96 well plate in a total volume of 200 μl of medium. MTT (25 μl of 5 mg/ml) was added to each well. After 4 hours, 100 μl of extraction buffer consisting of 20% SDS dissolved in a 50% dimethyl formamide/50% water solution at pH 4.0 was added. The blue colour formed was measured at 590 nm.
The MTT assay uses the principle whereby cell growth or cell death is indicated by the conversion or lack of conversion of the tetrazolium salt to the coloured product, formazan, the concentration of which can be measured spectrophotometrically.

IFN-γ = IFN-γ ELISA on splenocytes of mice immunized with OVA; type: in vivo, BALB/c mice; conditions: transdermal δ-T3 vs control
Procedure: (§1) The mice were further immunized subcutaneously with ovalbumin (50 μg) adjuvanted in alum. Interferon-gamma (IFN-γ) was measured upon antigen specific stimulation of OVA.
The experimental mice were sacrificed using ether. Spleen was removed aseptically into RPMI complete medium and single cell suspension was made by teasing out the splenocytes from the spleen capsule. Before culture, cells were stained with 0.4% Trypan Blue Stain (GIBCO, Invitrogen Corp, New Zealand) and cell viability count was performed using a haemocytometer. The spleen cell suspension was diluted to give a 5×10^6 cells/ml solution and Concanavalin A (Sigma-Aldrich Inc, St Louis Mo., USA) was added at a final concentration of 25 μg/ml. 200 μl of this suspension was plated on to 96-well flat-bottomed tissue culture plates (Becton Dickinson, USA) and left in a humidified CO2 incubator at 37° C. for 72 hours. At the end of each incubation period, the plate was removed from the incubator and stored at −70° C. The plates were thawed prior to performing ELISA.
The tissue culture plates that were frozen at […] were thawed. […] The supernatant was analysed by ELISA to quantify the amount of IFN-γ and IL-4 produced following the in vitro stimulation with Concanavalin A. ELISA was performed using ELISA kits for mouse IFN-γ and IL-4 (BD, Pharmingen) as recommended by the manufacturers.

B-lymphocytes = assay: Single colour flow cytometry with leukocyte marker antibodies, B-lymphocytes; type: in vivo, BALB/c mice; conditions: whole blood, δ-tocotrienol group compared to control
Procedure: as §1
(§2) Fluorescein isothiocyanate (FITC) or Phycoerythrin-labeled antibodies were diluted by adding 20 μl of antibody to 50 μl of Staining Buffer in separate tubes. 100 μl of whole blood from mouse was added to each tube and mixed gently. The samples were then incubated for one hour at room temperature in the dark. After incubation, 2 ml of RBC Lysis Buffer was added into each tube and mixed gently. Samples were then centrifuged at 400 g for 5 minutes at room temperature. A wash step was carried out by adding 2 ml of Staining Buffer and samples were again centrifuged at 400 g for 5 minutes at room temperature. Supernatant was removed and 200 μl Staining Buffer was added into each tube followed by 204 μl of 4% Formalin. Samples were analysed using Flow Cytometer.

[2] = mouse, in vivo
Procedure: BALB/c mice were divided into 2 groups. Control group only received ethanol the carrier whilst the experimental group was treated with 1 mg of δ-tocotrienols daily for 4 weeks. It was applied on the back to examine subcutaneous absorption.
Female BALB/c mice 3 to 4 weeks old were obtained from the Animal Breeding Unit, Institute for Medical Research (IMR), Kuala Lumpur, Malaysia. […] The control animals were treated with ethanol alone whilst the experimental groups were applied daily with 0.5 ml of a 20 mg/ml concentration to deliver 1 mg of δ-tocotrienol.
The tocopherols and tocotrienols were analysed by HPLC. The system used was a Shimadzu LC-10AT HPLC coupled with a Shimadzu Model RF-10AXL fluorescence spectrophotometer, Shimadzu Class VP data acquisition software, and silica column (YMC A-012/150×6 mm I.D, 5 μm). The eluting solvent was hexane/isopropyl alcohol (99.5/0.5 v/v) at a flow rate of 2.0 ml/min. The detector was set at excitation wavelength of 295 nm and emission wavelength of 325 nm. 500 mg adipose tissue was homogenized with 4:1:1 mixture of hexane:ethanol and 0.9% sodium chloride at 10000 rpm for 5 minutes. The homogenate was then centrifuged at 2000 rpm for 5 minutes. The resulting supernatant was filtered and evaporated using a rotary evaporator. A known amount of lipid sample was dissolved in a 10 ml volumetric flask using the eluting solvent and 10 μl of the solution was injected into the HPLC system. A standard solution of a mixture of α, γ, and δ-tocotrienols was also injected accordingly. Quantification of the major components of vitamin E was carried out by comparing the peak areas of the components with those of the standards.

[3] = system: natural killer cells (NK); assay: Single colour flow cytometry with leukocyte marker antibodies, NK cells; type: in vivo, BALB/c mice; conditions: whole blood, δ-tocotrienol group compared to control
Procedure: as §1, §2

[4] = rats fed 50 mg of α-T3 or α-T, α-T3 vs α-T; cited from earlier work
MCF-7 cells = conditions: α-T combined with tamoxifen; cited from earlier work
MDA-MB-231 cells = conditions: cited from earlier work

## CC(C)=CCC/C(C)=C/CC/C(C)=C/CC[C@]1(C)CCc2cc(O)c(C)c(C)c2O1 [γ-T3, γ-tocotrienol]
ZR-75-1 cells
  proliferation of ZR-75-1 cells: inhibited proliferation
Prostate cancer cell
  effect on prostate cancer cell growth: greater anti-proliferative effects than γ-T
[1]
  anti-proliferative and pro-apoptotic effects / inhibition of breast cancer cell growth: potent anti-proliferative and pro-apoptotic effects
MCF-7
  proliferation of MCF-7: inhibited proliferation

## Cc1c(O)cc2c(c1C)O[C@](C)(CCC[C@H](C)CCC[C@H](C)CCCC(C)C)CC2 [γ-T, γ-tocopherol, reference compound]
Prostate cancer cell
  effect on prostate cancer cell growth: much stronger inhibitory effect

## CC(C)=CCC/C(C)=C/CC/C(C)=C/CC[C@]1(C)CCc2cc(O)cc(C)c2O1 [δ-T3, δ-tocotrienol]
Splenocytes
  splenocyte growth (MTT OD reading): grew normally
ZR-75-1 cells
  proliferation of ZR-75-1 cells: inhibited proliferation
IFN-γ
  IFN-γ in splenocytes: significantly higher
IFN-γ; listed as δ-tocotrienols
  IFN-γ in splenocytes: significant increase
B-lymphocytes
  B-lymphocytes: significantly increased
B-lymphocytes; listed as δ-tocotrienols
  B-lymphocytes: increase
[1]; breast cancer
  synergistic efficacy with Tamoxifen: highest synergistic efficacy
[1]
  anti-proliferative and pro-apoptotic effects / inhibition of breast cancer cell growth: potent anti-proliferative and pro-apoptotic effects
[1]; listed as δ-tocotrienol
  anti-proliferative and pro-apoptotic effects / inhibition of breast cancer cell growth: most effective inhibitor
MCF-7
  proliferation of MCF-7: inhibited proliferation
[2]
  changes in tocotrienol levels in blood, spleen and liver: only seen at week 4
  concentration in adipose and subcutaneous fat tissue at week 3: drop in concentration
  time of optimum concentration in breast and abdominal adipose and subcutaneous fat tissue: 2 week
  δ-T3 in breast and abdominal adipose and subcutaneous fat tissue: significant increases
[3]
  natural killer cells: significantly increased
[3]; listed as δ-tocotrienols
  natural killer cells: increase

## CC(C)=CCC/C(C)=C/CC/C(C)=C/CC[C@]1(C)CCc2c(C)c(O)c(C)c(C)c2O1 [α-T3, α-tocotrienol]
ZR-75-1 cells
  proliferation of ZR-75-1 cells: inhibited proliferation
[4]
  concentration in adipose tissue and skin: significantly higher
[1]
  anti-proliferative and pro-apoptotic effects / inhibition of breast cancer cell growth: potent anti-proliferative and pro-apoptotic effects
MCF-7
  proliferation of MCF-7: inhibited proliferation

## Cc1c(C)c2c(c(C)c1O)CC[C@@](C)(CCC[C@H](C)CCC[C@H](C)CCCC(C)C)O2 [α-T, α-tocopherol]
MCF-7 cells
  increase of the IC50 for tamoxifen: more than 1000 fold
MDA-MB-231 cells
  effect on growth inhibitory effects of tamoxifen: completely blocked
[1]
  anti-proliferative and pro-apoptotic effects / inhibition of breast cancer cell growth: no effect
